Key:
UACC-257 = assay: 3 day proliferation assay, B-Raf V600E mutant cancer cell line; format: cell-based; conditions: Homo sapiens; UACC-257, Skin, BRAF V600E; read-out: Mean gIC50
A101D = assay: as above; format: cell-based; conditions: Homo sapiens, Skin, BRAF V600E, read-out: Mean gIC50
GCT = assay: as above; format: cell-based; conditions: Homo sapiens, Skin, BRAF V600E, read-out: Mean gIC50
C32TG = assay: as above; format: cell-based; conditions: Skin, BRAF V600E, read-out: Mean gIC50
DU4475 = assay: as above; format: cell-based; conditions: Homo sapiens, DU-4475; DU4475, Breast, BRAF V600E; read-out: Mean gIC50
WM115 = assay: as above; format: cell-based; conditions: Homo sapiens, WM-115, WM115, Skin, BRAF V600D, read-out: Mean gIC50
SK-MEL-28 = assay: as above; format: cell-based; conditions: Homo sapiens; SK-MEL-28, Skin, BRAF V600E; read-out: Mean gIC50
UCLA-SO-M14 = assay: as above; format: cell-based; conditions: UCLA-SO-M14, Skin, BRAF V600E; read-out: Mean gIC50
SW1417 = assay: as above; format: cell-based; conditions: Homo sapiens; SW1417, Colon, BRAF V600E; read-out: Mean gIC50
HT-29 = assay: as above; format: cell-based; conditions: Homo sapiens, HT-29, Colon, BRAF T119S, read-out: Mean gIC50
SW872 = assay: as above; format: cell-based; conditions: Homo sapiens; SW872, Connective tissue, BRAF V600E; read-out: Mean gIC50
NCI-H292 = assay: as above; format: cell-based; conditions: Homo sapiens, NCI-H292, Lung, BRAF T119S, read-out: Mean gIC50
SH-4 = assay: as above; format: cell-based; conditions: Homo sapiens; SH-4, Skin, BRAF V600E; read-out: Mean gIC50
A673 = assay: as above; format: cell-based; conditions: Homo sapiens; A673, Muscle, BRAF V600E; read-out: Mean gIC50
SK-MEL-1 = assay: as above; format: cell-based; conditions: Homo sapiens; SK-MEL-1, Skin, BRAF V600E; read-out: Mean gIC50
COLO 205 = assay: as above; format: cell-based; conditions: Homo sapiens; COLO 205, Colon, BRAF V600E; read-out: Mean gIC50
A375P F11s [1] = assay: as above; format: cell-based; conditions: Skin, BRAF V600E, read-out: Mean gIC50
SK-MEL-3 = assay: as above; format: cell-based; conditions: Homo sapiens, SK-MEL3; SK-MEL-3, Skin, BRAF V600E; read-out: Mean gIC50
ES-2 = assay: as above; format: cell-based; conditions: Homo sapiens; ES-2, Ovary, BRAF V600E; read-out: Mean gIC50
A375P F11s [2] = assay: Dose dependent tumor inhibition, A375P F11s xenograft; format: in vivo, athymic mice; parameters: key: −: indicates no response; +: indicates growth delay (1-2x doubling); ++: indicates growth delay (>2x doubling); +++: indicates stable disease; ++++: indicates partial regression; +++++: indicates complete regression; conditions: oral, 14-day period
Description: 1. […] Tumor cells (2×10^6 A375P F11s) were implanted subcutaneously into the right flank of athymic mice on Day 1. To facilitate their growth, A375P F11s cells were suspended in Matrigel diluted 1:1 in phosphate-buffered saline before implantation. When tumors had reached approximately 200 mm^3 in volume (Day 19-22), tumor-bearing mice were randomized into study groups (n=7 or 8). Animals were dosed orally once or twice daily for a 14-day period. […] Tumor growth was measured twice a week using calipers for the duration of the study. Tumor volumes were calculated as a product of (length×width×width)/2 and median values were used to compare groups. Complete regressions (CR) were defined as three consecutive tumor measurements of ≦13.5 mm^3. Partial regressions were defined as three consecutive measurements of ≦50% of starting tumor volume. Tumor growth delay was defined as the difference in time taken for treated and control groups to reach 1000 mm^3 (T-C1000).

[3] = test system: Human colon tumor cells (Colo205); assay: Cell growth inhibition assay (CellTiter-Glo), Colo205; format: cell-based; conditions: COLO 205, Table 2b, later runs, average for the one or more runs, categorized, read-out: IC50 for Colo205
Method in brief: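 Luminescent ATP read-out (CellTiter-Glo) served as a proxy for cell number; percent growth inhibition was calculated against DMSO vehicle wells. Cells were treated for 3 days at 37 °C with serially diluted compound, 0.2% DMSO final.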

[4] = test system: cancer cell lines encoding B-Raf V600E mutation; assay: 3 day proliferation assay, panel of 22 mutant cancer cell lines; format: cell-based; conditions: number of cell lines of the panel
RKO = assay: 3 day proliferation assay, B-Raf V600E mutant cancer cell line; format: cell-based; conditions: Homo sapiens, Colon, BRAF V600E, read-out: Mean gIC50
[5] = test system: Human melanoma cancer cells (SK-MEL-28); assay: Cell growth inhibition assay (CellTiter-Glo), SK-MEL-28; format: cell-based; conditions: SK-MEL-28, Table 3b, later runs, average for the one or more runs, categorized, read-out: IC50 for SK-MEL-28
MALME-3M = assay: 3 day proliferation assay, B-Raf V600E mutant cancer cell line; format: cell-based; conditions: Homo sapiens, Skin, BRAF V600E, read-out: Mean gIC50
UACC-62 = assay: as above; format: cell-based; conditions: Homo sapiens; UACC-62, Skin, BRAF V600E; read-out: Mean gIC50

SMILES: CC(C)(C)c1nc(-c2cccc(NS(=O)(=O)c3c(F)cccc3F)c2F)c(-c2ccnc(N)n2)s1 [Example 58a, N-{3-[5-(2-Amino-4-pyrimidinyl)-2-(1,1-dimethylethyl)-1,3-thiazol-4-yl]-2-fluorophenyl}-2,6-difluorobenzenesulfonamide]
- IC50 (UACC-257): < 100 nM
- IC50 (A101D): < 100 nM
- IC50 (GCT): ≥ 1000 nM
- IC50 (C32TG): < 100 nM
- IC50 (DU4475): < 100 nM
- IC50 (WM115): < 100 nM
- IC50 (SK-MEL-28): < 100 nM
- IC50 (UCLA-SO-M14): < 100 nM
- IC50 (SW1417): 100 to 1000 nM
- IC50 (HT-29): < 100 nM
- IC50 (SW872): 100 to 1000 nM
- IC50 (NCI-H292): ≥ 1000 nM
- IC50 (SH-4): < 100 nM
- IC50 (A673): ≥ 1000 nM
- IC50 (SK-MEL-1): < 100 nM
- IC50 (COLO 205): < 100 nM
- IC50 (A375P F11s [1]): < 100 nM
- IC50 (SK-MEL-3): < 100 nM
- IC50 (ES-2): < 100 nM
- Response (A375P F11s [2]; 0.1 mg/kg qd): −
- Response (A375P F11s [2]; 1 mg/kg qd): + (indicates growth delay (1-2x doubling))
- IC50 [3]: < 100 nM
- cancer cell lines encoding B-Raf V600E sensitive with gIC50<100 nM [4]: 16 out of 22
- cancer cell lines not sensitive (gIC50>1000M) [4]: 4 out of 22
- cancer cell lines with intermediate response (gIC50≧100 nM and <1000 nM) [4]: 2 out of 22
- IC50 (RKO): ≥ 1000 nM
- IC50 [5]: < 100 nM
- IC50 (MALME-3M): < 100 nM
- IC50 (UACC-62): < 100 nM

From patent US7994185B2, “Benzene sulfonamide thiazole and oxazole compounds” (Glaxo Smith Kline LLC, priority 2008, dated 2011)
